# Data reported in patent publication US7871999B2, “Substituted thiazoles and their use for producing drugs” (Gruenenthal GmbH, priority 2005, dated 2011).
# Tests used:
# mGluR5 receptor [1] = biological target: T1, mGluR5 receptor (Homo sapiens, UniProt P41594); experiment: Functional Ca^2+ influx assay in the mGluR5 receptor assay (CHO-hmGluR5 cells, DHPG 10 μM); format: cell-based; conditions: Ki=IC50/(1+(AGconc./EC50))
# T1 construct: host or cells: CHO cells (CHO-hmGluR5), incubated overnight with doxycycline
# T1 sequence (P41594 21-1212): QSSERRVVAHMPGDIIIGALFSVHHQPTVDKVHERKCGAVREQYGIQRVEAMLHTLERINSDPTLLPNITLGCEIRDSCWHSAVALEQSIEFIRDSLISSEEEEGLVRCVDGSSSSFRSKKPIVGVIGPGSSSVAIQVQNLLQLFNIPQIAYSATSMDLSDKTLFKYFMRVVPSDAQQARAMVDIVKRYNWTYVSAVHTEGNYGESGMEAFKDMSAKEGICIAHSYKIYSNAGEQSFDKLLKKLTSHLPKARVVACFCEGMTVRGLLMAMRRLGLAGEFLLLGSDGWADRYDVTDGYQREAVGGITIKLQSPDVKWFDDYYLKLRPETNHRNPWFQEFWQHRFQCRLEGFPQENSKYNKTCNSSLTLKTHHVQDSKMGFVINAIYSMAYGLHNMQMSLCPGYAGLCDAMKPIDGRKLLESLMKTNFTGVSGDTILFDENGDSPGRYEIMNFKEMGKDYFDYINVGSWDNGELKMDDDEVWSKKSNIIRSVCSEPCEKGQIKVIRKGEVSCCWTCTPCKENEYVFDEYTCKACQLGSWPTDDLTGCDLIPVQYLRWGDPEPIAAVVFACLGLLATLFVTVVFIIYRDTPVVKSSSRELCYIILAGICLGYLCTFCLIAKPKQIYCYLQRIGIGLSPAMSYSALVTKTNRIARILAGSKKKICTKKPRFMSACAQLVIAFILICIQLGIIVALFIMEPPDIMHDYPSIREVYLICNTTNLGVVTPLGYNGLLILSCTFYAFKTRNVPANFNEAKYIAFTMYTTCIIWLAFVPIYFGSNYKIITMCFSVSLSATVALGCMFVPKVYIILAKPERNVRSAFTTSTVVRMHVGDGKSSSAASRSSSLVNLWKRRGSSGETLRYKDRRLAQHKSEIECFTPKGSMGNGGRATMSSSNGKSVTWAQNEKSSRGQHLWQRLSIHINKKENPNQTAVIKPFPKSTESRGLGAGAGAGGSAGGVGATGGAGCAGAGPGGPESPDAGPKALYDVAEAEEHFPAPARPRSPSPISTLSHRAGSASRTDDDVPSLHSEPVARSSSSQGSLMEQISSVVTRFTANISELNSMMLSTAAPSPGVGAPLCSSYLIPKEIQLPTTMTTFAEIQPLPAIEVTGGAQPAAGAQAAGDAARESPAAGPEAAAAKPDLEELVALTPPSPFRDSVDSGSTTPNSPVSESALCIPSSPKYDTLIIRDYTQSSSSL
# Description: II. Method for Determining Ca^2+ Influx in the mGluR5 Receptor Assay
# […] According to this assay, intracellular Ca^2+ release is quantified after activation of the mGluR5 receptor with the assistance of a Ca^2+-sensitive dye (type Fluo-4, Molecular Probes Europe BV, Leiden, Netherlands) in a FlexStation (Molecular Devices, Sunnyvale, USA).
# Description of the Functional Ca^2+ Influx Assay
# 20,000 CHO-hmGluR5 cells/well (Euroscreen, Gosselies, Belgium) are pipetted out into 96 well plates (BD Biosciences, Heidelberg, Germany, Ref. 356640, clear bottom, 96 well, poly-D-lysine) and incubated overnight in HBSS buffer (Gibco No. 14025-050) with the following additives: 10% FCS (GIBCO, 10270-106) and doxycycline (BD Biosciences Clontech 631311 600 ng/ml).
# For the purpose of functional investigation, the cells were loaded with 2 μM Fluo-4 and 0.01 vol. % Pluronic F127 (Molecular Probes Europe BV, Leiden, Netherlands) in HBSS buffer (Hank's buffered saline solution, Gibco Invitrogen GmbH, Karlsruhe, Germany) with Probenicid (Sigma P8761, 0.69 mg/ml) for 30 min at 37° C.
# The cells are then washed 3 times with washing buffer (HBSS buffer, Gibco No. 14025-050, with Probenicid (Sigma P8761, 0.69 mg/ml) and then resuspended with the same buffer to make up to 100 μl. After 15 min, the plates are transferred for determination of Ca^2+ measurements in the presence of DHPG ((S)-3,5-dihydroxyphenylglycine, Tocris Biotrend Chemikalien GmbH, Cologne, Germany, final DHPG concentration: 10 μM) and in the presence or absence of test substances into a FLuorometric Imaging Plate Reader (FLIPR, Molecular Devices, Sunnyvale, Calif.).
# Ca^2+-dependent fluorescence is measured before and after addition of test substances. Quantification proceeds by measuring the highest fluorescence intensity over time.
# After recording a fluorescence baseline for 10 s, 50 μl of test substance solution (various test substance concentrations in HBSS buffer with 1% DMSO and 0.02% Tween 20, Sigma) are added and the fluorescence signal is measured for 6 min. Then, 50 μl of DHPG solution ((S)-3,5-dihydroxyphenylglycine, Tocris Biotrend Chemikalien GmbH, Cologne, Germany, final DHPG concentration: 10 μM) are added and Ca^2+ influx is simultaneously measured for 60 s. The final DMSO concentration amounts to 0.25% and the final Tween 20 content amounts to 0.005%. The data are analysed with Microsoft Excel and GraphPad Prism. The dose-response curves are calculated with non-linear regression and IC50 values are determined. Each data point is determined in triplicate and IC50 values are averaged from a minimum of 2 independent measurements.
# Ki values are calculated using the following formula: Ki=IC50/(1+(AGconc./EC50)).
# AGconc.=10 μM; EC50 corresponds to the DHPG concentration which is necessary for the semimaximal influx of Ca^2+.
# mGluR5 receptor [2] = biological target: T2, mGluR5 receptor (Sus scrofa, UniProt I3LUI7); experiment: Inhibition of [^3H]-MPEP binding in the mGluR5 receptor binding assay (pig brain homogenate); conditions: 5 nM [^3H]-MPEP; for inhibition at 1 µM: 1 μM test compound; for inhibition at 10 µM: 10 μM test compound
# T2 construct: pig brain hemispheres without medulla, cerebellum and pons ... differential centrifugation at 900×g and 40,000×g
# T2 sequence (I3LUI7 1-1212): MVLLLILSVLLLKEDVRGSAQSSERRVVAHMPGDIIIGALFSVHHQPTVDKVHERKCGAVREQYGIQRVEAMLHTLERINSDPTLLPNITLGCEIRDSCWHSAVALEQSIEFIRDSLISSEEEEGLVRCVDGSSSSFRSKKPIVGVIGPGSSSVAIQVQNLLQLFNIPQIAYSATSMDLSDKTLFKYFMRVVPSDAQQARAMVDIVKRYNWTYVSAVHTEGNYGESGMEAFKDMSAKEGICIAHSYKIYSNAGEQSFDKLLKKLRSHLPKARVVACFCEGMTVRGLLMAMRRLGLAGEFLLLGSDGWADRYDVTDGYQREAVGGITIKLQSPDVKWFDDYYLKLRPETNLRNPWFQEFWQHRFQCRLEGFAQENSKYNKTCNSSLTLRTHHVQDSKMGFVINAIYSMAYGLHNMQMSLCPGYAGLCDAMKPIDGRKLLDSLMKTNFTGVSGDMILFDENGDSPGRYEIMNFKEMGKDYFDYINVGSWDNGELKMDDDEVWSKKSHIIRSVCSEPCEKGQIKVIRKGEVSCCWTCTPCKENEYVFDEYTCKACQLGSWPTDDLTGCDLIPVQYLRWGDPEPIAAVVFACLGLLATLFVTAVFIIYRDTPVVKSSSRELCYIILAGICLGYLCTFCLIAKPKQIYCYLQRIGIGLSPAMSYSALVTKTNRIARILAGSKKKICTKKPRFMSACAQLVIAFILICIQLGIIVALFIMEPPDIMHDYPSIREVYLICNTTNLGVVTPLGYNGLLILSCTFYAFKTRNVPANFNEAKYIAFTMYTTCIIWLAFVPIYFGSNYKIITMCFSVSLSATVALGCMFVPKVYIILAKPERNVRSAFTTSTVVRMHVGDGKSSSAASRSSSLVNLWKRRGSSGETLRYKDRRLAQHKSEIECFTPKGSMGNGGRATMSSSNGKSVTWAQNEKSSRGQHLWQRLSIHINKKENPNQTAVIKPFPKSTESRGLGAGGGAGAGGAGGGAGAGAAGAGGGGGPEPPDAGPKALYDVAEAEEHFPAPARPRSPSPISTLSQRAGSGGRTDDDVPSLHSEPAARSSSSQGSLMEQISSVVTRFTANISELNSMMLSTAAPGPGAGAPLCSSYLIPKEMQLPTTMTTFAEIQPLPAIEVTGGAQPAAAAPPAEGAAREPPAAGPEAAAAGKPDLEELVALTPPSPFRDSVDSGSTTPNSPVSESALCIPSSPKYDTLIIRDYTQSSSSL
# Method: I. Method for Determining the Inhibition of [^3H]-MPEP Binding in the mGluR5 Receptor Binding Assay […]
# The batches are then filtered with the assistance of a Brandel Cell Harvester (Brandel, Robotic 9600 model) on Unifilter plates with glass filter mats (Perkin Elmer, order number 6005177) and then washed 3 times with buffer (as above) using 250 μl per sample. The filter plates are then dried for 60 min at 55° C. Then 30 μl of Ultima Gold™ scintillating material (Packard BioScience, order number 6013159) is added per well and after 3 hours the samples are measured using the β counter (Microbeta, Perkin Elmer). Nonspecific binding is determined by the addition of 10 μM MPEP (Tocris, order number 1212).
Ki (mGluR5 receptor [1]),IC50 (mGluR5 receptor [2]),inhibition at 1 µM (mGluR5 receptor [2]),Compound,further results
4 nM,5 nM,,"O=C(C#Cc1cccc(Cl)c1)NC1CCCN(c2nccs2)C1 (stereo not drawn) [Example 32, 3-(3-chlorophenyl)-N-(1-(thiazol-2-yl)piperidin-3-yl)-propiolamide]",
,,89%,"Cc1cccc(C#CC(=O)NC2CCN(c3ncc(C)s3)C2)c1 (stereo not drawn) [Example 74, N-(1-(5-methylthiazol-2-yl)pyrrolidin-3-yl)-3-m-tolylpropiolamide]",
,,57%,"Cc1cnc(N2CCC(NC(=O)C#Cc3cccc(F)c3)C2)s1 (stereo not drawn) [Example 81, 3-(3-fluorophenyl)-N-(1-(5-methylthiazol-2-yl)pyrrolidin-3-yl)propiolamide]",
,,81%,"Cc1cccc(C#CC(=O)NC2CCN(c3nc(C)c(C)s3)C2)c1 (stereo not drawn) [Example 82, N-(1-(4,5-dimethylthiazol-2-yl)pyrrolidin-3-yl)-3-m-tolylpropiolamide]",
,,46%,"Cc1cccc(C#CC(=O)NC2CCN(c3nc(C(C)(C)C)cs3)C2)c1 (stereo not drawn) [Example 99, N-(1-(4-tert.-butylthiazol-2-yl)pyrrolidin-3-yl)-3-m-tolylpropiolamide]",
,,38%,"CC(C)(C)c1csc(N2CCC(NC(=O)C#Cc3cccc(Cl)c3)C2)n1 (stereo not drawn) [Example 100, N-(1-(4-tert.-butylthiazol-2-yl)pyrrolidin-3-yl)-3-(3-chlorophenyl)propiolamide]",
,,24%,"Cc1cnc(N2CCC(NC(=O)C#Cc3cccc(Cl)c3)C2)s1 (stereo not drawn) [Example 112, 3-(3-chlorophenyl)-N-(1-(5-methylthiazol-2-yl)pyrrolidin-3-yl)propiolamide]",

# Continued, compound first:
Compound,Ki (mGluR5 receptor [1]),IC50 (mGluR5 receptor [2]),inhibition at 1 µM (mGluR5 receptor [2]),further results
"CN(CCN(C)c1nccs1)C(=O)C#Cc1ccccc1 [Example 4, N-Methyl-N-(2-(methyl(thiazol-2-yl)amino)ethyl)-3-phenylpropiolamide]",5.2 nM,57 nM,,
"Cc1cccc(C#CC(=O)N(C)CCN(C)c2nccs2)c1 [Example 7, N-methyl-N-(2-(methyl(thiazol-2-yl)amino)ethyl)-3-(3-methylphenyl)-propiolamide]",4.8 nM,26 nM,,
"CN(CCNC(=O)C#Cc1ccccc1)c1nccs1 [Example 9, N-(2-(methyl(thiazol-2-yl)amino)ethyl)-3-phenylpropiolamide]",1 nM,38 nM,,
"CN(CCN(C)c1nccs1)C(=O)C#Cc1cccc(C#N)c1 [Example 13, N-methyl-N-(2-(methyl(thiazol-2-yl)amino)ethyl)-3-(3-cyanophenyl)-propiolamide]",20.8 nM,87 nM,,
"O=C(C#Cc1ccccc1)NC1CCCN(c2nccs2)C1 (stereo not drawn) [Example 15, 3-Phenyl-N-(1-(thiazol-2-yl)piperidin-3-yl)propiolamide]",14.4 nM,86 nM,,
"CN(CCN(C)c1nccs1)C(=O)C#Cc1cccc(Cl)c1 [Example 18, N-Methyl-N-(2-(methyl(thiazol-2-yl)amino)ethyl)-3-(3-chlorophenyl)-propiolamide]",4.9 nM,20 nM,,
"CN(CCNC(=O)C#Cc1cccc(Cl)c1)c1nccs1 [Example 19, N-(2-(Methyl(thiazol-2-yl)amino)ethyl)-3-(3-chlorophenyl)-propiolamide]",0.4 nM,1.9 nM,,
"CCOC(=O)c1csc(N(C)CCNC(=O)C#Cc2cccc(Cl)c2)n1 [Example 26, N-(2-(methyl-(4-ethoxycarbonylthiazol-2-yl)amino)ethyl)-3-(3-chlorophenyl)-propiolamide]",3.6 nM,86 nM,,
"CN(CCNC(=O)C#Cc1cccc(Cl)c1)c1nc(Br)cs1 [Example 33, N-(2-((4-bromothiazol-2-yl)(methyl)amino)ethyl)-3-(3-chlorophenyl)propiolamide]",10 nM,13 nM,,
"CN(c1nccs1)C1CN(C(=O)C#Cc2cccc(Cl)c2)C1 [Example 35, 1-(3-(3-Chlorophenyl)propioloyl)-3-(methyl(thiazol-2-yl)amino)azetidine]",6.5 nM,2.2 nM,,
"Cc1ccc(C#CC(=O)NC2CCN(c3ncc(C)s3)C2)cc1 (stereo not drawn) [Example 73, N-(1-(5-methylthiazol-2-yl)pyrrolidin-3-yl)-3-p-tolylpropiolamide]",,,18%,
"Cc1cnc(N2CCC(NC(=O)C#Cc3ccccc3)C2)s1 (stereo not drawn) [Example 76, N-(1-(5-methylthiazol-2-yl)pyrrolidin-3-yl)-3-phenylpropiolamide]",,,56%,
"Cc1cnc(N2CCC(NC(=O)C#Cc3ccccc3F)C2)s1 (stereo not drawn) [Example 77, 3-(2-fluorophenyl)-N-(1-(5-methylthiazol-2-yl)pyrrolidin-3-yl)propiolamide]",,,21%,
"COc1cccc(C#CC(=O)NC2CCN(c3ncc(C)s3)C2)c1 (stereo not drawn) [Example 78, 3-(3-methoxyphenyl)-N-(1-(5-methylthiazol-2-yl)pyrrolidin-3-yl)propiolamide]",,,26%,
"Cc1nc(N2CCC(NC(=O)C#Cc3cccc(C(F)(F)F)c3)C2)sc1C (stereo not drawn) [Example 85, N-(1-(4,5-dimethylthiazol-2-yl)pyrrolidin-3-yl)-3-(3-(trifluoromethyl)phenyl)-propiolamide]",,,41%,
"Cc1cnc(N2CCC(NC(=O)C#Cc3cccc(C(F)(F)F)c3)C2)s1 (stereo not drawn) [Example 87, N-(1-(5-methylthiazol-2-yl)pyrrolidin-3-yl)-3-(3-(trifluoromethyl)phenyl)-propiolamide]",,,23%,
"COc1cccc(C#CC(=O)NC2CCN(c3nc(C)c(C)s3)C2)c1 (stereo not drawn) [Example 90, N-(1-(4,5-dimethylthiazol-2-yl)pyrrolidin-3-yl)-3-(3-methoxyphenyl)propiolamide]",,,34%,
"Cc1csc(N2CCC(NC(=O)C#Cc3cccc(Cl)c3)C2)n1 (stereo not drawn) [Example 105, 3-(3-chlorophenyl)-N-(1-(4-methylthiazol-2-yl)pyrrolidin-3-yl)propiolamide]",,,,inhibition at 10 µM (mGluR5 receptor [2]): 83%
"Cc1csc(N2CCC(NC(=O)C#Cc3cccs3)C2)n1 (stereo not drawn) [Example 106, N-(1-(4-methylthiazol-2-yl)pyrrolidin-3-yl)-3-(thiophen-2-yl)propiolamide]",,,,inhibition at 10 µM (mGluR5 receptor [2]): 38%
"Cc1nc(N2CCC(NC(=O)C#Cc3cccc(Cl)c3)C2)sc1C (stereo not drawn) [Example 110, 3-(3-chlorophenyl)-N-(1-(4,5-dimethylthiazol-2-yl)pyrrolidin-3-yl)propiolamide]",,,,inhibition at 10 µM (mGluR5 receptor [2]): 63%
"Cc1cnc(N2CCC(NC(=O)C#Cc3cccs3)C2)s1 (stereo not drawn) [Example 113, N-(1-(5-methylthiazol-2-yl)pyrrolidin-3-yl)-3-(thiophen-2-yl)propiolamide]",,,,inhibition at 10 µM (mGluR5 receptor [2]): 22%
"Cc1cnc(N2CCC(NC(=O)C#Cc3ccccn3)C2)s1 (stereo not drawn) [Example 119, N-(1-(5-methylthiazol-2-yl)pyrrolidin-3-yl)-3-(pyridin-2-yl)propiolamide]",,,,inhibition at 10 µM (mGluR5 receptor [2]): 20%
"CC(C)(C)c1csc(N2CCC(NC(=O)C#Cc3cccnc3)C2)n1 (stereo not drawn) [Example 123, N-(1-(4-tert.-butylthiazol-2-yl)pyrrolidin-3-yl)-3-(pyridin-3-yl)propiolamide]",,,20%,
"CN(CCNC(=O)C#Cc1cccc(Cl)c1)c1ncc(F)s1 [Example 126, 3-(3-Chlorophenyl)-N-(2-((5-fluorothiazol-2-yl)(methyl)amino)ethyl)propiolamide]",,16 nM,,
